Data set [1] has as its system HeLa S6 cells. Nature of the data set: nuclear transport of BSA covalently linked to peptide in digitonin permeabilized cells. The class given is cell-based. The settings on record: 600 nM peptide/BSA-BODIPY, 30 min, fluorescence microscope.
The subject of data set [2] is 16HBE14o-cells. Description: luciferase transfection assay with vector/DNA (CMVL-W) complexes. The class given is cell-based.
For the next data set, the system named is DNase I. Description: stability of vector/DNA complexes against DNase I digestion, agarose gel. Format: physicochemical. As to conditions: higher enzyme concentrations (2.5, 5, 10 U DNase I), 1 h at 37° C., 3 μg pEGFP.
Another data set relates to 16HBE14o cells. Nature of the data set: tracking of DNA-TOTO-3/(PKKKRKVG)4-FITC complexes on their way to the nucleus. As to conditions: 100% confluent cells, 5 μg CMVL-W, 24 μg peptide (N/P 8). The class given is cell-based.
Data set [3] has as its system HeLa S6 cells. Description: fluorescence in situ hybridisation of plasmid pEGFP after transfection (fluorescence microscopy and CLSM). The settings on record: for location of plasmid DNA by CLSM: confocal laser scanning microscopy; for nuclear localization of plasmid DNA / cells showing signals in the nuclear region: fluorescence microscopy. The class given is cell-based.

The subject of data set [4] is 16HBE14o-cells. Nature of the data set: proportion of transgene (GFP) expressing cells by flow cytometry. The class given is cell-based. The settings on record: 1 μg pEGFP/(PKKKRKVG)4 complexes (N/P 8), 24 hours. The procedure:
(A, B, D, E) Flow cytometry of 16HBE14o-cells transfected with DNA (pEGFP) or DNA complexed with (PKKKRKVG)4. Transfection was stopped after 24 hours. Cells were treated with trypsin and resuspended in medium. FCS: Forward scatter. FH-1: green channel for the GFP signal. (A, B) Control. Cells were only transfected with 1 μg pEGFP. Mean: 5.66. M1: 96% of total cells. M2: 4% of total cells. (D, E) Transfection with 1 μg pEGFP/(PKKKRKVG)4 complexes (N/P 8). Mean: 10.25. M1: 55% of total cells. M2: 45% of total cells. Near half the cell population expresses green fluorescence protein. (C, F) Fluorescence microscopy images of HeLa S6 cells transfected with (C) 1 μg pEGFP or (F) 1 μg pEGFP complexed with (PKKKRKVG)4 (N/P 8). Images were taken with a 40× objective (exposure time: 2 sec).
It was examined how many cells express the transgene product. 16HBE14o-cells were transfected with 1 μg pEGFP/(PKKKRKVG)4 complexes N/P 8 (24 hours) and measured by flow cytometry.

The subject of data set [5] is 16HBE14o-cells. Description: inhibition of gene transfer by excess of free peptide, luciferase assay. The class given is cell-based. As to conditions: 30 fold molar excess of free peptide added 20 min before the complexes.
The subject of data set [6] is COS7 cells. Nature of the data set: transfection efficiency at 4° C. compared with 37° C. Format: cell-based. The settings on record: 4 h transfection, COS7, luciferase after 24 h. The procedure: Cells were transfected with 1 μg of CMVL-W complexed with C(YGRKKRRQRRRG)24 at N/P=10 for 4 h at 4° C. or at 37° C. Luciferase activity was measured (10 sec) after 24 h.
At low temperatures such as 4° C. energy-dependent processes like the endosomal uptake are suppressed. For this reason transfection efficiency at 4° C. could be an indicator for the extend of endosomal uptake which takes place during the transfection period. Transfection was performed in the way as described above but for the 4° C. experiment the 24 well plate was incubated in a cool room at 4° C. for 4 h.

Data set [7] deals with COS7 cells. Nature of the data set: effect of peptide on gene transfer mediated by PEI, fractured Dendrimers and Lipofectamine. Format: cell-based.

The record followed here is US20030125242A1, “Polypeptides comprising multimers of nuclear localization signals or of protein transduction domains and their use for transferring molecules into cells” (priority 1999, published 2003).

Where no end group is shown, it is not given here.

With “(PKKKRKVG)4: tetramer of the wild-type SV40 large T-antigen NLS PKKKRKV with a glycin added at the end of each NLS (SEQ ID NO: 5) (also: tetramer of PKKKRKVG, linkage not given here)”, in the data set on HeLa S6 cells [1], the “nuclear transport of covalently coupled BSA-BODIPY” value (“nuclear transport” below) is reported as “transports the coupled BSA into the nucleus”. Further, in the data set on 16HBE14o-cells [2], the “cell transfection compared with DNA/Dendrimer-complexes” value is “cell transfection as high as with DNA/Dendrimer-complexes”, the “cell transfection higher as with DNA/poly-L-lysine 2.9 kD/INF7a complexes” value is listed as 1000 fold and the “enhancement of cell transfection compared to studies without endosomolytic agents” value is given as 10 fold. Besides, the “transfection rates compared with different non-viral vectors” value in the data set with 16HBE14o-cells [2] (1 μg CMVL-W, 4.8 μg (PKKKRKVG)4 (N/P 8), luciferase after 24 h) was “almost as high transfection rates as with Dendrimer/DNA complexes”. The “increase of relative light units (RLU) per mg cell protein in comparison to poly-L-lysine” value in the data set with 16HBE14o-cells [2] (1 μg CMVL-W, vs poly-L-lysine 2.9 kD/DNA complexes, luciferase after 24 h) was determined as 100 fold. For the same substance, in the data set on 16HBE14o-cells [2] (100% confluent cells, CMVL-W/Dendrimer complexes plus (PKKKRKVG)4), the “transfection results in comparison to transfections without (PKKKRKVG)4” value was 10 fold. Further, in the data set with 16HBE14o-cells [2] (added in increasing concentrations to polymer/DNA complexes), the “effect of added (PKKKRKVG)4 on transfection efficiency of PEI/CMVL-W and Dendrimer/CMVL-W complexes” value is recorded as “significant increase of transfection efficiency”. For the same substance, the “DNA protection of complexed DNA against DNase I digestion” value in the data set with DNase I is “still can bee seen”. The “localization of complexes after 4 h” value with 16HBE14o cells (4 h) is “most of the complexes were outside the nucleus”. For the same substance, the “localization of peptide and DNA after 30 h” value in the data set with 16HBE14o cells (30 h) is “could be found in the nucleus”. Moreover, in the data set on HeLa S6 cells [3] (2 hours), the “location of plasmid DNA by CLSM” value is recorded as “already plasmid DNA in the nucleus” and the “nuclear localization of plasmid DNA” value is on record as “plasmid DNA could be detected within the nuclear region”. Besides, in the data set on HeLa S6 cells [3] (24 hours), the “location of plasmid DNA by CLSM” value was “accumulated in the nucleus” and the “cells showing signals in the nuclear region” value came to 68.9%. In addition, in the data set on 16HBE14o-cells [4], the “M1 of total cells” value is recorded as 55%; the “M2 of total cells” value amounted to 45%; the “Mean (GFP signal, flow cytometry)” value was determined as 10.25; the “cells showing a GFP signal” value is “Approximately 50%”. Moreover, the “inhibition of gene transfer of DNA/(PKKKRKVG)4 complexes by free peptide” value with 16HBE14o-cells [5] was “complete blockade of gene transfer”.

On to “(PKTKRKVG)4: tetramer containing mutant large T-NLS (SEQ ID NO: 6); threonin mutant known to be transport deficient [reference compound]”, for which the “nuclear transport” value with HeLa S6 cells [1] was “no signal was seen in the nucleus”. The “gene transfer efficiency compared with (PKKKRKVG)4/DNA complexes” value in the data set on 16HBE14o-cells [2] is “significantly lower gene transfer efficiency”. Moreover, in the data set on HeLa S6 cells [3] (2 hours), the “location of plasmid DNA by CLSM” value was “arranged around the nuclear membrane” and the “nuclear localization of plasmid DNA” value is “nuclear localization of plasmid DNA was not seen”. In the data set with HeLa S6 cells [3] (24 hours), the “location of plasmid DNA by CLSM” value is listed as “arranged around the nuclear membrane” and the “cells showing signals in the nuclear region” value is 14.7%.

“C(YGRKKRRQRRRG)2: dimer of HIV-1 TAT protein transduction domain YGRKKRRQRRR with G, N-terminal C (SEQ ID NO: 30) (CYGRKKRRQRRRG; also: dimer: C(YGRKKRRQRRRG)2, linkage not given here)”: in the data set with COS7 cells [6], the “decrease of transfection efficiency at 4° C. compared to 37° C.” value is on record as 19 fold. Moreover, in the data set with COS7 cells [7] (peptide N/P=1, then PEI 25 kD N/P 10), the “effect on gene transfer mediated by PEI” value was “enhances gene transfer”. In addition, in the data set with COS7 cells [7] (peptide N/P=1, then fractured Dendrimer N/P 4.5), the “effect on gene transfer mediated by fractured dendrimers” value is “enhances gene transfer”.

For the substance wheat germ agglutinin, the “nuclear transport” value in the data set with HeLa S6 cells [1] is given as “no signal was seen in the nucleus”.
